Experimental data taken from US20090312390A1, “INHIBITORS OF GLYCOGEN SYNTHASE KINASE-3 (GSK-3) FOR TREATING GLAUCOMA” (ALCON, INC., priority 2001, published 2009).

B1: FRP-1: frizzled related protein, secreted protein that antagonizes the Wnt signaling pathway (protein, UniProt Q8N474 32-314, looked up)
Secreted frizzled-related …: SEYDYVSFQSDIGPYQSGRFYTKPPQCVDIPADLRLCHNVGYKKMVLPNLLEHETMAEVKQQASSWVPLLNKNCHAGTQVFLCSLFAPVCLDRPIYPCRWLCEAVRDSCEPVMQFFGFYWPEMLKCDKFPEGDVCIAMTPPNATEASKPQGTTVCPPCDNELKSEAIIEHLCASEFALRMKIKEVKKENGDKKIVPKKKKPLKLGPIKKKDLKKLVLYLKNGADCPCHQLDNLSHHFLIMGRKVKSQYLLTAIHKWDKKNKEFKNFMKKMKNHECPTFQSVFK

Key:
GSK-3 = conditions: literature report; cited from earlier work
[1] = system: central and peripheral neurons grown in culture; conditions: death induced by reduced phosphatidyl inositol pathway activity (Cross et al.); cited from earlier work
[2] = system: perfused human ocular anterior segments; assay: Outflow rate in perfused human ocular anterior segments maintained in culture
Method: (§1) Recently it has been discovered that frizzled related protein (FRP) is differentially expressed in a number of glaucomatous trabecular meshwork cell lines. […] The decreased flow rate in the cultured anterior segments models an increase in resistance to outflow (increase in intraocular pressure) in intact eye.
Human ocular anterior segments are perfused with Dulbecco's modified Eagle's medium (DMEM) at a constant pressure of 11 mm Hg. The outflow rate of each eye is measured by weighing its reservoir at specified periods. After a stabilization period, the eyes are perfused with either vehicle or FRP-1 (10 μg/ml) and their outflow rates monitored for 2-5 days. […] Inhibitor is added and the anterior segment is perfused for an additional 2-4 days. Outflow rate is measured by weighing its reservoir at specific periods.

β-catenin = β-catenin protein levels in ciliary body and trabecular meshwork of perfused anterior segments; set-up: species or system human; conditions: ciliary body and trabecular meshwork (TM) after FRP-1 perfusion
Text: as §1

| Molecule | GSK-3 inhibition (GSK-3) | protection of neurons from death [1] | also measured |
| --- | --- | --- | --- |
| CN(C)CCCn1cc(C2=C(c3c[nH]c4ccccc34)C(=O)NC2=O)c2ccccc21 [GF1092] | inhibitors of GSK-3 | – | – |
| Cn1cc(C2=C(c3cn(CCCSC(=N)N)c4ccccc34)C(=O)NC2=O)c2ccccc21 [Ro 31-8220] | inhibitors of GSK-3 | – | – |
| O=C1NC(=O)C(c2ccccc2[N+](=O)[O-])=C1Nc1ccc(O)c(Cl)c1 [SB-415286] | – | protected both central and peripheral neurons | – |
| Cn1cc(C2=C(c3ccc(Cl)cc3Cl)C(=O)NC2=O)c2ccccc21 [SB216763] | – | protected both central and peripheral neurons | – |
| B1 | – | – | aqueous humor outflow ([2]; FRP-1 10 μg/ml, constant pressure 11 mm Hg, outflow monitored 2-5 days): decrease in aqueous humor outflow; flowrate ([2]; perfusion of FRP-1 through perfused human ocular anterior segments in culture): decrease in flowrate; β-catenin protein levels (β-catenin): decrease in β-catenin protein levels |
